Reference: ChEMBL document CHEMBL3997762 (Medchemcomm, 2016)
The source made the active and inactive calls. The calls are words filed in the database; no cut-off is given here.

Assays:
SGC-7901 [1] = assay: Cytotoxicity against human SGC7901 cells assessed as effect on cell viability at 10 uM after 48 hrs by MTT assay relative to control; type: functional
GES1 [2] = assay: Cytotoxicity against human GES-1 cells assessed as effect on cell viability at 10 uM after 48 hrs by MTT assay relative to control; type: cell-based; conditions: ges1, 48 h
SGC-7901 [3] = assay: Cytotoxicity against human SGC7901 cells assessed as effect on cell viability at 50 uM after 48 hrs by MTT assay relative to control; type: functional
GES1 [4] = assay: Cytotoxicity against human GES-1 cells assessed as effect on cell viability at 50 uM after 48 hrs by MTT assay relative to control; type: cell-based; conditions: ges1, 48 h
GES1 [5] = assay: Cytotoxicity against human GES-1 cells assessed as effect on cell viability up to 100 uM after 48 to 72 hrs by MTT assay; type: cell-based
[6] = Stability of the compound in PBS in presence of FBS by fluorescence assay; type: physicochemical; conditions: cattle, buffer
[7] = Stability of the compound in DMEM in presence of FBS by fluorescence assay
[8] = Drug uptake in human SGC7901 cells at 5 uM after 24 hrs by MitoTracker Red CM-H2-XRos/Hoechst 33342 dye based confocal fluorescence microscopic analysis; type: ADME, cell-based; conditions: sgc-7901, 24 h
[9] = Drug uptake in human SGC7901 cells at 5 uM after 4 hrs by flow cytometry relative to control; type: ADME, cell-based; conditions: sgc-7901, 4 h
[10] = Drug uptake in human SGC7901 cells at 5 uM after 24 hrs by flow cytometry relative to control; type: ADME, cell-based; conditions: sgc-7901, 24 h
[11] = Drug uptake in human SGC7901 cells at 5 uM after 48 hrs by flow cytometry relative to control; type: ADME, cell-based; conditions: sgc-7901, 48 h
[12] = Drug localization in mitochondria of human SGC7901 cells at 5 uM after 24 hrs by MitoTracker Red CM-H2-XRos/Hoechst 33342 dye based confocal fluorescence microscopic analysis; type: ADME
SGC-7901 [13] = assay: Cytotoxicity against human SGC7901 cells assessed as decrease in cell viability pretreated for 4 hrs followed by DTT addition measured 48 to 72 hrs post dose by MTT assay; type: functional, cell-based
[14] = Stability of the compound in DMEM in presence of FBS up to 96 hrs by fluorescence assay
[15] = Drug uptake in human SGC7901 cells at 3 uM after 4 hrs by flow cytometry relative to control; type: ADME, cell-based; conditions: sgc-7901, 4 h
[16] = Drug uptake in human SGC7901 cells at 3 uM after 24 hrs by flow cytometry relative to control; type: ADME, cell-based; conditions: sgc-7901, 24 h
SGC-7901 [17] = assay: Induction of apoptosis in human SGC7901 cells after 48 hrs by Annexin V/[…] staining-based flow cytometric method; type: functional, cell-based
[18] = Drug localization in mitochondria of human MCF7 cells at 5 uM after 24 hrs by MitoTracker Red CM-H2-XRos/Hoechst 33342 dye based confocal fluorescence microscopic analysis; type: ADME
SGC-7901 [19] = assay: Induction of apoptosis in human SGC7901 cells assessed as decrease in viable cells after 48 hrs by Annexin V/[…] staining-based flow cytometric method; type: functional, cell-based
SGC-7901 [20] = assay: Induction of apoptosis in human SGC7901 cells assessed as decrease in nonapoptotic cells after 48 hrs by Annexin V/[…] staining-based flow cytometric method; type: functional, cell-based
SGC-7901 [21] = assay: Cell cycle arrest in human SGC7901 cells assessed as accumulation at G1 phase at <20 uM after 24 hrs by propidium iodide staining based flow cytometry; type: functional
SGC-7901 [22] = assay: Cell cycle arrest in human SGC7901 cells assessed as accumulation at S phase at >20 uM after 24 hrs by propidium iodide staining based flow cytometry; type: functional
SGC-7901 [23] = assay: Induction of ROS production in human SGC7901 cells at 5 to 20 uM after 48 hrs by DHE dye based flow cytometry; type: functional, cell-based
SGC-7901 [24] = assay: Cell cycle arrest in human SGC7901 cells assessed as decrease in G1 phase at >20 uM after 24 hrs by propidium iodide staining based flow cytometry; type: functional
SGC-7901 [25] = assay: Induction of ROS production in human SGC7901 cells at 5 to 10 uM after 48 hrs by MitoTracker Red CM-H2-XRos dye based flow cytometry; type: functional, cell-based

O=c1[nH]cc(F)c(=O)[nH]1 [FLUOROURACIL]
fold change (FC) (SGC-7901 [1]): 0.986 | fold change (FC) (GES1 [2]): 0.733 | fold change (FC) (SGC-7901 [3]): 0.6 | fold change (FC) (GES1 [4]): 0.53 | Activity (GES1 [5]): Toxic

O=c1[nH]c(=O)n(CCC[n+]2ccc(/C=C/c3c[nH]c4ccccc34)cc2)cc1F.[Br-]
Stability [6]: 72 h | Stability [7]: 48 h | Drug uptake [8]: Not Active | Drug uptake [9]: 78% | Drug uptake [10]: 80.5% | Drug uptake [11]: 62.6% | fold change (FC) (SGC-7901 [3]): 1.019 | fold change (FC) (GES1 [4]): 1.072

O=c1[nH]c(=O)n(CCSSCC[n+]2ccc(/C=C/c3c[nH]c4ccccc34)cc2)cc1F.[Br-]
fold change (FC) (SGC-7901 [1]): 1.108 | fold change (FC) (GES1 [2]): 0.978 | Stability [6]: 72 h | Drug uptake [12]: Active | Drug uptake [9]: 93.2% | Drug uptake [10]: 98.8% | Drug uptake [11]: 99.6% | Activity (SGC-7901 [13]): Active | fold change (FC) (SGC-7901 [3]): 1.021 | fold change (FC) (GES1 [4]): 0.895 | Stability [14]: Stable

C[n+]1ccc(/C=C/c2c[nH]c3ccccc23)cc1.[I-]
Drug uptake [15]: 95.4% | Drug uptake [16]: 96.9%

O=C(Cn1cc(F)c(=O)[nH]c1=O)NCC[n+]1ccc(/C=C/c2c[nH]c3ccccc23)cc1.[Br-]
fold change (FC) (SGC-7901 [1]): 0.977 | fold change (FC) (GES1 [2]): 1.055 | Stability [6]: 72 h | Stability [7]: 48 h | Drug uptake [8]: Not Active | Drug uptake [9]: 0.8% | Drug uptake [10]: 1.4% | Drug uptake [11]: 1.6% | fold change (FC) (SGC-7901 [3]): 0.888 | fold change (FC) (GES1 [4]): 1.069

O=C(Cn1cc(F)c(=O)[nH]c1=O)OCC[n+]1ccc(/C=C/c2c[nH]c3ccccc23)cc1.[Br-]
Activity (SGC-7901 [17]): Dose-dependent effect | fold change (FC) (SGC-7901 [1]): 0.707 | fold change (FC) (GES1 [2]): 0.822 | Stability [6]: 72 h | Stability [7]: 48 h | Drug uptake [18]: Active | Drug uptake [9]: 96.5% | Drug uptake [10]: 96.6% | Drug uptake [11]: 95.8% | Activity (SGC-7901 [19]): Dose-dependent effect | Activity (SGC-7901 [20]): Dose-dependent effect | Activity (SGC-7901 [21]): Active | Activity (SGC-7901 [22]): Active | Activity (SGC-7901 [23]): Active | fold change (FC) (SGC-7901 [3]): 0.597 | fold change (FC) (GES1 [4]): 0.561 | Activity (GES1 [5]): Non-Toxic | Activity (SGC-7901 [24]): Active | Activity (SGC-7901 [25]): Active
